Source: patent US20150258101A1 (Proximagen Limited, priority 2014, published 2015)
Counter-ions that a name gives are not always drawn.

target: T1, purified recombinantly expressed human SSAO (Homo sapiens, UniProt Q16853); assay: SSAO enzyme inhibition assay (benzylamine substrate; hydrogen peroxide/HRP-coupled or 14C aldehyde detection); format: biochemical; conditions: SSAO inhibitory activity, RT
T1 construct: made in house
T1 sequence (Q16853 1-763): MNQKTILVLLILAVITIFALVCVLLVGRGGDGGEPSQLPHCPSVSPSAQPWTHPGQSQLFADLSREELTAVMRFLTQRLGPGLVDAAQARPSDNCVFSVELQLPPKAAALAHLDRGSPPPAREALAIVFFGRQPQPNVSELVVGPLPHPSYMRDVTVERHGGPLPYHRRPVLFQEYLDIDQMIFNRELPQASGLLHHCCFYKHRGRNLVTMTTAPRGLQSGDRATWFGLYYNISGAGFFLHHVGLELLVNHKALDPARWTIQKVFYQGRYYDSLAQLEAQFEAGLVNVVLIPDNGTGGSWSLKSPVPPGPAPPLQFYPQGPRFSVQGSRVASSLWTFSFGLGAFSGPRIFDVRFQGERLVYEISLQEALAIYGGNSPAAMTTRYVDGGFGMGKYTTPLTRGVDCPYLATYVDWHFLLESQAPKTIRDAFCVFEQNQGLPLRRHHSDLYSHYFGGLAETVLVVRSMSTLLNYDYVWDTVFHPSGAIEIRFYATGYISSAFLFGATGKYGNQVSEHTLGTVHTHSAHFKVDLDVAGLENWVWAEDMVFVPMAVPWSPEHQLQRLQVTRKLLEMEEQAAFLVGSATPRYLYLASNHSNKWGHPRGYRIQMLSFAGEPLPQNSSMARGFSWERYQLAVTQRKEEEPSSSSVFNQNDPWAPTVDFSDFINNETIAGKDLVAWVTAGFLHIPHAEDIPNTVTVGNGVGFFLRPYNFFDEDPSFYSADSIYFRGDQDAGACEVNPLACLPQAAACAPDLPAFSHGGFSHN
Experimental: All primary assays were performed at RT. with purified recombinantly expressed human SSAO. Enzyme was prepared essentially as described in Öhman et al. (Protein Expression and Purification 46 (2006) 321-331). In addition, secondary- and selectivity assays were performed using SSAO prepared from various tissues or purified rat recombinant SSAO. The enzyme activity was assayed with benzylamine as substrate by measuring either benzaldehyde production, using ^14C-labeled substrate, or by utilizing the production of hydrogen peroxide in a horseradish peroxidase (HRP) coupled reaction. Briefly, test compounds were dissolved in dimethyl sulfoxide (DMSO) to a concentration of 10 mM. Dose-response measurements were assayed by either creating 1:10 serial dilutions in DMSO to produce a 7 point curve or by making 1:3 serial dilutions in DMSO to produce 11 point curves.
In a horseradish peroxidase (HRP) coupled reaction, hydrogen peroxide oxidation of 10-acetyl-3,7-dihydroxyphenoxazine produced resorufin, which is a highly fluorescent compound (Zhout and Panchuk-Voloshina. Analytical Biochemistry 253 (1997) 169-174; Amplex® Red Hydrogen Peroxide/peroxidase Assay kit, Invitrogen A22188). Enzyme and compounds in 50 mM sodium phosphate, pH 7.4 were set to pre-incubate in flat-bottomed microtiter plates for approximately 15 min before initiating the reaction by addition of a mixture of HRP, benzylamine and Amplex reagent. Benzylamine concentration was fixed at a concentration corresponding to the Michaelis constant, determined using standard procedures. Fluorescence intensity was then measured at several time points during 1-2 h, exciting at 544 nm and reading the emission at 590 nm. For the human SSAO assay final concentrations of the reagents in the assay wells were: SSAO enzyme 1 ug/ml, benzylamine 100 uM, Amplex reagent 20 uM, HRP 0.1 U/mL and varying concentrations of test compound. The inhibition was measured as % decrease of the signal compared to a control without inhibitor (only diluted DMSO). The background signal from a sample containing no SSAO enzyme was subtracted from all data points. Data was fitted to a four parameter logistic model and IC50 values were calculated using the Graph Pad Prism 4 or XLfit 4 programs.
SSAO activity was assayed using 14C-labeled benzylamine and analysed by measuring radioactive benzaldehyde. In a white 96-well optiplate (Packard), 20 uL of diluted test compound was pre-incubated at room temperature with 20 uL SSAO enzyme for approximately 15 min with continuous agitation. All dilutions were made with PBS. The reaction was initiated by adding 20 uL of the benzylamine substrate solution containing [7-14C] Benzylamine hydrochloride (CFA589, GE Healthcare). The plate was incubated for 1 h as above after which the reaction was stopped by acidification (10 uL 1M aq HCl). Then 90 uL Micro Scint-E solution (Perkin-Elmer) was added to each well and the plate was continuously mixed for 15 min. Phase separation occurred instantly and activity was read in a Topcount scintillation counter (Perkin-Elmer). In the final reaction well, the human recombinant SSAO concentration was 10 ug/ml. In order to optimize sensitivity, the substrate concentration was decreased as compared to the HRP coupled assay in order to get a higher fraction of radioactive product. In the human SSAO assay, benzylamine concentration was 40 uM (0.2 uCi/mL). Data was analysed as above.

IC50 [nM]	Compound
< 50	Cc1nc(N2CCOCC2)ncc1-c1nc2ccncc2n1-c1ccc(Cl)cc1F [Example 27, 4-{5-[3-(4-Chloro-2-fluorophenyl)-3H-imidazo [4,5-c]pyridin-2-yl]-4-methylpyrimidin-2-yl} morpholine]
200 to 1200	Cc1ccc(-n2c(-c3cnc(N4CCOCC4)cc3C)nc3ccncc32)cc1 [Example 97, 4-{4-Methyl-5-[3-(4-methylphenyl)-3H-imidazo[4,5-c]pyridin-2-yl]pyridin-2-yl}morpholine]
200 to 1200	Clc1ccc(-n2c(-c3cccnc3)nc3ccncc32)cc1 [Example 1, 3-[3-(4-Chlorophenyl)-3H-imidazo[4,5-c]pyridin-2-yl]pyridine]
< 50	Cc1cnccc1-c1cc2ccncc2n1-c1ccc(Cl)cc1 [Example 154, 4-[1-(4-Chlorophenyl)-1H-pyrrolo[2,3-c]pyridin-2-yl]-3-methylpyridine]
50 to 200	Cc1nc(N2CCOCC2)ncc1-c1nc2ccncc2n1-c1ccc(F)cc1 [Example 26, 4-{5-[3-(4-Fluorophenyl)-3H-imidazo[4,5-c]pyridin-2-yl]-4-methylpyrimidin-2-yl} morpholine]
200 to 1200	Clc1ccc(-n2c(-c3cnc[nH]3)nc3ccncc32)cc1 [Example 44, 5-[3-(4-Chlorophenyl)-3H-imidazo[4,5-c]pyridin-2-yl]-1H-imidazole]
< 50	Cc1ccc(-n2c(-c3cnc(N4CCOCC4)cc3C)nc3ccncc32)cn1 [Example 107, 4-{4-Methyl-5-[3-(6-methylpyridin-3-yl)-3H-imidazo[4,5-c]pyridin-2-yl]pyridin-2-yl}morpholine]
50 to 200	Fc1ccc(-n2c(-c3ccnc(N4CCOCC4)c3)nc3ccncc32)cc1 [Example 73, 4-{4-[3-(4-Fluorophenyl)-3H-imidazo[4,5-c]pyridin-2-yl]pyridin-2-yl}morpholine]
200 to 1200	Cc1cc(NC2CCOCC2)ncc1-c1nc2ccncc2n1-c1ccc(F)cc1 [Example 100, 5-[3-(4-Fluorophenyl)-3H-imidazo[4,5-c]pyridin-2-yl]-4-methyl-N-(oxan-4-yl)pyridin-2-amine]
< 50	Clc1ccc(-n2c(-c3ccc(CN4CCOCC4)cc3)nc3ccncc32)cc1 [Example 49, 4-({4-[3-(4-Chlorophenyl)-3H-imidazo[4,5-c]pyridin-2-yl]phenyl}methyl)morpholine]
< 50	Cc1cc(F)ccc1-n1c(-c2cnc(N3CCOCC3)nc2)nc2ccncc21 [Example 55, 4-{5-[3-(4-Fluoro-2-methylphenyl)-3H-imidazo[4,5-c]pyridin-2-yl]pyrimidin-2-yl}morpholine]
50 to 200	Fc1ccc(-n2c(-c3ccc(C4CCOCC4)nn3)nc3ccncc32)cc1 [Example 15, 3-[3-(4-Fluorophenyl)-3H-imidazo[4,5-c]pyridin-2-yl]-6-(oxan-4-yl)pyridazine]
< 50	CN(C)c1ncc(-c2cc3ccncc3n2-c2ccc(Cl)cc2)cn1 [Example 137, 5-[1-(4-Chlorophenyl)-1H-pyrrolo[2,3-c]pyridin-2-yl]-N,N-dimethylpyrimidin-2-amine; bis(trifluoroacetic acid)]
< 50	CC(=O)N1CCCN(c2ccc(-c3nc4ccncc4n3-c3ccc(F)cc3)cn2)CC1 [Example 87, 1-(4-{5-[3-(4-Fluorophenyl)-3H-imidazo[4,5-c]pyridin-2-yl]pyridin-2-yl}-1,4-diazepan-1-yl)ethan-1-one; bis(trifluoroacetic acid)]
< 50	O=c1cc(N2CCOCC2)[nH]cc1-c1nc2ccncc2n1-c1ccc(F)cc1 [Example 99, 5-[3-(4-Fluorophenyl)-3H-imidazo[4,5-c]pyridin-2-yl]-2-(morpholin-4-yl)-1,4-dihydropyridin-4-one]
200 to 1200	Clc1ccc(-n2c(-c3csc(N4CCNCC4)n3)nc3ccncc32)cc1 [Example 17, 1-{4-[3-(4-Chlorophenyl)-3H-imidazo[4,5-c]pyridin-2-yl]-1,3-thiazol-2-yl}piperazine dihydrochloride]
< 50	Cn1cncc1-c1cc2ccncc2n1-c1ccc(Cl)cc1 [Example 136, 5-[1-(4-Chlorophenyl)-1H-pyrrolo[2,3-c]pyridin-2-yl]-1-methyl-1H-imidazole]
< 50	Fc1ccc(-n2c(-c3ccc(N4CCOCC4)nc3)nc3ccncc32)c(Cl)c1 [Example 61, 4-{5-[3-(2-Chloro-4-fluorophenyl)-3H-imidazo[4,5-c]pyridin-2-yl]pyridin-2-yl}morpholine]
50 to 200	CC(C)OCCNc1ncc(-c2nc3ccncc3n2-c2ccc(F)cc2)cn1 [Example 38, 5-[3-(4-Fluorophenyl)-3H-imidazo[4,5-c]pyridin-2-yl]-N-[2-(propan-2-yloxy)ethyl] pyrimidin-2-amine]
< 50	O=c1cc(-c2nc3ccncc3n2-c2ccc(F)cc2)ccn1C1CC1 [Example 115, 1-Cyclopropyl-4-[3-(4-fluorophenyl)-3H-imidazo[4,5-c]pyridin-2-yl]-1,2-dihydropyridin-2-one]
50 to 200	c1cc2nc(-c3cnc(N4CCOCC4)nc3)n(-c3ccc(C4CC4)cc3)c2cn1 [Example 96, 4-{5-[3-(4-Cyclopropylphenyl)-3H-imidazo[4,5-c]pyridin-2-yl]pyrimidin-2-yl}morpholine]
< 50	Fc1ccc(-n2c(-c3cnc(N4CCCOCC4)nc3)nc3ccncc32)cc1 [Example 25, 4-{5-[3-(4-Fluorophenyl)-3H-imidazo[4,5-c]pyridin-2-yl]pyrimidin-2-yl}-1,4-oxazepane]
50 to 200	O=c1cc(-c2nc3ccncc3n2-c2ccc(Cl)cc2F)ccn1C1CC1 [Example 116, 4-[3-(4-Chloro-2-fluorophenyl)-3H-imidazo[4,5-c]pyridin-2-yl]-1-cyclopropyl-1,2-dihydropyridin-2-one]
50 to 200	Fc1ccccc1-n1c(-c2cnc(N3CCOCC3)nc2)nc2ccncc21 [Example 60, 4-{5-[3-(2-Fluorophenyl)-3H-imidazo[4,5-c]pyridin-2-yl]pyrimidin-2-yl}morpholine]
< 50	Fc1ccc(-n2c(-c3ccc(OC4CCOC4)nc3)nc3ccncc32)cc1 (stereo not shown) [Example 112, 5-[3-(4-Fluorophenyl)-3H-imidazo[4,5-c]pyridin-2-yl]-2-(oxolan-3-yloxy)pyridine]
50 to 200	Cc1ccc(-n2c(-c3ccc(N4C[C@@H](C)O[C@@H](C)C4)nc3)nc3ccncc32)cn1 [Example 103, (2R,6S)-2,6-Dimethyl-4-{5-[3-(6-methylpyridin-3-yl)-3H-imidazo[4,5-c]pyridin-2-yl]pyridin-2-yl}morpholine; tris(trifluoroacetic acid)]
200 to 1200	Cn1cc(-c2nc3ccncc3n2-c2ccc(Cl)cc2)ccc1=O [Example 33, 5-[3-(4-Chlorophenyl)-3H-imidazo[4,5-c]pyridin-2-yl]-1-methyl-1,2-dihydropyridin-2-one]
< 50	Clc1ccc(-n2c(-c3cncnc3)cc3ccncc32)cc1 [Example 123]
